Measurements published in patent publication US20260158103A1, “USE OF CYCLOSPORINE ANALOGUES AS ANTITHROMBOTIC AGENTS” (Hepion Pharmaceuticals, Inc., priority 2020, published 2026).
“Also recorded” adds a separate entry of the source. Where a SMILES comes first, the peptide text is derived from it. [ ]: non-standard residue; d: D form. NMeThr(4R-Me,4-(CH2)6NHAc) = CN[C@H](C(=O)O)[C@H](O)[C@H](C)CCCCCCNC(C)=O; NMeL = CN[C@@H](CC(C)C)C(=O)O; NMeV = CN[C@H](C(=O)O)C(C)C; dNMeA = CN[C@H](C)C(=O)O; Abu = CC[C@H](N)C(=O)O

How the values were obtained:
[1] = tested on: human platelet aggregation; assay: Platelet aggregometry (washed platelets, lumi-aggregometer, % Light Transmittance); type: cell-based
Protocol: (§1) Platelet isolation. Blood (40 ml) was obtained from healthy volunteers who had not taken any drugs known to affect platelet function for 2 weeks prior to the study. Prostacyclin-washed platelet suspensions (2.5×10^8/ml) were prepared in Tyrode's buffer.
Platelet aggregometry. Washed platelets (500 μl/test) were pre-incubated (2 minutes at 37° C.) in a lumi-aggregometer (Chronolog, Havertown, PA, USA) with either vehicle (0.1% DMSO) or CRV431 (0.01-3 μM). Platelet aggregation was then initiated with collagen (1 μg/mL) or thrombin (0.1 U/mL) (Chronolog) and monitored by Aggro-Link software for a further 6 minutes. Extent of platelet aggregation was measured as % Light Transmittance between minutes 2 and 6 and determined by Aggro-Link Software.
(§2) Statistics. Statistical analysis was performed using GraphPad Prism 7.0 software. All means are reported with SEM. One-way ANOVA with Dunnet's multiple comparisons test was performed for aggregation studies, and a Repeated-measures One-way ANOVA with Dunnet's multiple comparisons test was performed for procoagulant platelet formation studies. Each N represents an experiment from an independent blood donor. A P-value less than 0.05 was considered significant.

[2] = tested on: human procoagulant platelet formation (platelet PS exposure); assay: Procoagulant platelet formation (annexin-V-FITC binding to exposed phosphatidylserine, flow cytometry); type: cell-based
Protocol: as §1
Procoagulant platelet formation studies. […] Procoagulant platelet formation was assessed by measuring annexin-V-FITC binding to exposed phosphatidylserine (PS) by flow cytometry as described previously. Flow cytometry was performed utilizing a BD Fortessa X20 flow cytometer equipped with a blue (488 nm) laser and […] band pass filters to detect FITC. Percent PS-positive platelets were determined post-acquisition using FlowJo software.
as §2

With `CC(=O)Oc1ccccc1C(=O)O` [acetylsalicylic acid, reference compound] the “inhibition of platelet aggregation (positive control)” value ([1]; single blood donor (FIG. 3B), agonist and concentration not given) was “effectively inhibited aggregation; also recorded: platelet aggregation is inhibited”.
In the case of `CC[C@@H]1NC(=O)[C@H]([C@H](O)[C@H](C)CCCCCCNC(C)=O)N(C)C(=O)[C@H](C(C)C)N(C)C(=O)[C@H](CC(C)C)N(C)C(=O)[C@H](CC(C)C)N(C)C(=O)[C@@H](C)NC(=O)[C@H](C)NC(=O)[C@H](CC(C)C)N(C)C(=O)[C@H](C(C)C)NC(=O)[C@H](CC(C)C)N(C)C(=O)[C@@H](C)N(C)C1=O` [CRV431] (cyclo(A[dA][NMeL][NMeL][NMeV][NMeThr(4R-Me,4-(CH2)6NHAc)][Abu][dNMeA][NMeL]V[NMeL])), the “inhibition of platelet PS-exposure, a marker of procoagulant platelet formation” value ([2]; CRV431 at 1 and 3 μM, activated by collagen and thrombin, N=8, P<0.01 / P<0.001 vs. vehicle control) is reported as “significantly inhibited platelet PS-exposure”, the “percentage of phosphatidylserine (PS)-positive platelets” value ([2]; increasing concentrations of CRV431, induced by collagen (10 μg/ml) and thrombin (0.1 U/ml), flow cytometry) is reported as “reduce the percentage of phosphatidylserine (PS)-positive platelets” and the “inhibition of platelet aggregation induced by collagen” value ([1]; collagen 1 μg/mL, CRV431 0.01-3 μM, washed human platelets, N=10, P>0.05) is reported as “did not inhibit platelet aggregation”. The “inhibition of platelet aggregation at the highest concentration tested” value ([1]; single blood donor (FIG. 3A), highest concentration tested) was “does not inhibit platelet aggregation” and the “inhibition of platelet aggregation induced by thrombin” value ([1]; thrombin 0.1 U/mL, CRV431 0.01-3 μM, washed human platelets, N=9, P>0.05) was “did not inhibit platelet aggregation”.
